What was measured:
GTPase KRas [G12D,C118A] = GTPase KRas [G12D,C118A] (Homo sapiens, UniProt P01116, C118A/G12D); assay: KRAS G12D Coupled Nucleotide Exchange Assay
Description: The assay plates were then read on a PerkinElmer En Vision Multilabel Reader, using AlphaScreen technology, and data were analyzed using a 4-parameter logistic model to calculate IC50 values.

kras g12d tr-fret = kras g12d tr-fret (Homo sapiens, UniProt P01116, G12D); assay: KRAS G12D TR-FRET Assay
Description: The His-tagged KRAS G12D protein (Amgen) was diluted to 20 nM in Assay Buffer (20 mM HEPES, pH 7.4, 10 mM MgCl2, 50 mM NaCl, 0.1% BSA, 0.01% Tween-20, 10 μM GDP) and 2 μL was added to the appropriate wells of the 384-well plate. The plate was incubated for 30 minutes at rt. Biotinylated KRPep-2d substrate (Amgen) was diluted to […] in Assay Buffer and 2 AL was added to all wells and incubated for 1 hour at room temperature. Detection Reagent (0.4 nM LANCE Eu-W1024 Anti-6×His (Perkin Elmer AD0401), 5 nM streptavidin-d2 (Cisbio 610SADLA)) was prepared in Assay Buffer, then 4 AL was added to the plate and incubated for 1 h at rt.

Chain of kras g12d tr-fret (P01116 whole entry G12D): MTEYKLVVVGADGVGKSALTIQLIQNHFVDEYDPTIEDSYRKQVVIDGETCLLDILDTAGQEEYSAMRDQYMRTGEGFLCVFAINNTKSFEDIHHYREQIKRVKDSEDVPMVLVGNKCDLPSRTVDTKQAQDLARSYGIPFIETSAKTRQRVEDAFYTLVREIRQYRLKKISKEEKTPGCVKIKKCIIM
Chain of GTPase KRas [G12D,C118A] (P01116 whole entry G12D/C118A, looked up): as the sequence (P01116 whole entry G12D) above, with C118A counted along it

N#Cc1c(N)sc2c(F)ccc(-c3c(Cl)cc4c(N5CC6CC(O)C(C6)C5)nc(OC[C@@]56CCCN5C[C@H](F)C6)nc4c3F)c12 (mixture of isomers) [US20250163064, Example 7]
IC50 (GTPase KRas [G12D,C118A]): 6 nM
IC50 (kras g12d tr-fret): 4 nM

N#Cc1c(N)sc2c(F)ccc(-c3c(Cl)cc4c(N5CCCC[C@@H](O)C5)nc(OC[C@@]56CCCN5C[C@H](F)C6)nc4c3F)c12 [US20250163064, Example 4]
IC50 (GTPase KRas [G12D,C118A]): 6 nM
IC50 (kras g12d tr-fret): 4 nM

N#Cc1c(N)sc2c(F)ccc(-c3c(Cl)cc4c(N5CCOCC(=O)C5)nc(OC[C@@]56CCCN5C[C@H](F)C6)nc4c3F)c12 [US20250163064, Example 6]
IC50 (GTPase KRas [G12D,C118A]): 5 nM

N#Cc1c(N)sc2c(F)ccc(-c3c(Cl)cc4c(N5CCCC(C#N)CC5)nc(OC[C@@]56CCCN5C[C@H](F)C6)nc4c3F)c12 (some centres undefined) [US20250163064, Example 3]
IC50 (GTPase KRas [G12D,C118A]): 7 nM
IC50 (kras g12d tr-fret): 4 nM

N#Cc1c(N)sc2c(F)ccc(-c3c(Cl)cc4c(N5CCCC6(CNC(=O)O6)C5)nc(OC[C@@]56CCCN5C[C@H](F)C6)nc4c3F)c12 (some centres undefined) [US20250163064, Example 17]
IC50 (GTPase KRas [G12D,C118A]): 6 nM
IC50 (kras g12d tr-fret): 3 nM

Source: BindingDB's records for patent US20250163064 (Amgen, 2025)
